Laboratory results published in US20250313563A1, “GLYCOGEN SYNTHASE KINASE 3 INHIBITORS AND USES THEREOF” (The Broad Institute, Inc., priority 2022, published 2025).
Where two headings read alike, the source gives them in different places.

What was measured:
[1] = biological target: GSK3α (GST-full length GSK3α) (Homo sapiens (Human), UniProt P49840); assay: GSK3α TR-FRET kinase assay; type: biochemical
Summary of the method: (§1)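 Full-length GST-tagged human enzyme (1 nM) is exposed to test compound for 30 min before substrates are added. Phosphorylation of a primed biotinylated glycogen synthase peptide proceeds 100 min at room temperature at low ATP (4 μM α; 2 μM β) or high ATP (1 mM). Product is quantified by TR-FRET.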

[2] = biological target: GSK3b (GST-full length GSK3b) (Homo sapiens (Human), UniProt P49841); assay: GSK3b TR-FRET kinase assay; type: biochemical
Summary of the method: as §1

[3] = 1 nM GSK3α, 4 μM ATP, 30 minute preincubation, Table 16, read-out: GSK3-A TR-FRET BIOCHEMICAL (TR-FRET)
[4] = 1 nM GSK3b, 2 μM ATP, 30 minute preincubation, Table 16, read-out: GSK3-B TR-FRET BIOCHEMICAL (TR-FRET)
[5] = 1 nM GSK3α, 4 μM ATP, 30 minute preincubation, read-out: GSK3-A TR-FRET BIOCHEMICAL (TR-FRET), IC50
[6] = 1 nM GSK3b, 2 μM ATP, 30 minute preincubation, read-out: GSK3-B TR-FRET BIOCHEMICAL (TR-FRET), IC50
[7] = read-out: GSK3-A (TR-FRET 1 mM ATP), GMean, IC50, 1 mM ATP, geometric mean
[8] = read-out: GSK3-B (TR-FRET 1 mM ATP), GMean, IC50, 1 mM ATP, geometric mean
[9] = 1 nM GSK3α, 4 μM ATP, 30 minute preincubation, Table 16, read-out: GSK3-A TR-FRET BIOCHEMICAL (TR-FRET), IC50
[10] = 1 nM GSK3b, 2 μM ATP, 30 minute preincubation, Table 16, read-out: GSK3-B TR-FRET BIOCHEMICAL (TR-FRET), IC50

Sequence of GSK3α (GST-full length GSK3α) (P49840 whole entry): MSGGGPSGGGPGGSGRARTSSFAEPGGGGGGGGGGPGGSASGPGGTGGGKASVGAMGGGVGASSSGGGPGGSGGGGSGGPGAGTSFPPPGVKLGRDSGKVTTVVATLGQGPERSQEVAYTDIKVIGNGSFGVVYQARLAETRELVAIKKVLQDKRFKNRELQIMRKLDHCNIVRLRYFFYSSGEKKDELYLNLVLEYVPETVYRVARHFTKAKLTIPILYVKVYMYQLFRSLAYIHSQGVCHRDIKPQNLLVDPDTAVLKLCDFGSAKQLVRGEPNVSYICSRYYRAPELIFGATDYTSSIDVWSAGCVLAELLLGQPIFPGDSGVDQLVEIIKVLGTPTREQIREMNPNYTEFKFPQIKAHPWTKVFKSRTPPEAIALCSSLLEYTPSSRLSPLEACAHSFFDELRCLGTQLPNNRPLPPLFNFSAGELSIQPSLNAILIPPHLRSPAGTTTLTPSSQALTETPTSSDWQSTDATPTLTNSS
Sequence of GSK3b (GST-full length GSK3b) (P49841 whole entry): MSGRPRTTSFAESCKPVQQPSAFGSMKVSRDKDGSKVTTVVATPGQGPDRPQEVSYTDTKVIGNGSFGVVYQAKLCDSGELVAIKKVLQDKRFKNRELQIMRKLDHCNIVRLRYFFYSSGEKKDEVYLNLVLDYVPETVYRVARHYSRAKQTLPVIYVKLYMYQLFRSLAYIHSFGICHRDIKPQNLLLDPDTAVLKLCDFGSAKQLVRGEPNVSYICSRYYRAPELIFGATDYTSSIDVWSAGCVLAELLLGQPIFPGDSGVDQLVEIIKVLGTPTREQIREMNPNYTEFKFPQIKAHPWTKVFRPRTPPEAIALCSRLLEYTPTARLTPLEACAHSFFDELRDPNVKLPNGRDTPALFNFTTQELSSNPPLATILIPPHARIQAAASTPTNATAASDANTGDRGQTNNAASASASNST

| SMILES | IC50 [1, 3] [µM] | IC50 [2, 4] [µM] | IC50 [1, 9] [µM] | IC50 [2, 10] [µM] | further results |
| --- | --- | --- | --- | --- | --- |
| CCC1(c2cccc(C(F)(F)F)c2)C2=C(CCCNC2=O)Nc2n[nH]cc21 (stereo not drawn) [Compound 913355] | > 5 | > 5 | – | – | – |
| CC1(C)CC(=O)C2=C(C1)Nc1n[nH]cc1C21CCC(S(C)(=O)=O)CC1 (stereo not drawn) [Compound 913356] | ≤ 0.1 | ≤ 0.1 | – | – | – |
| CCC1(c2cccc(-c3ccnc(C)c3)c2)C2=C(CC(C)NC2=O)Nc2n[nH]cc21 (stereo not drawn) [Compound 913357] | – | – | – | – | IC50 [1, 5]: 0.1 to 1 µM; IC50 [2, 6]: 1 to 5 µM |
| CCC1(c2cccc(Br)c2)C2=C(CC(C)(C)NC2=O)Nc2n[nH]cc21 (stereo not drawn) [Compound 913439] | – | – | – | – | IC50 [1, 5]: ≤ 0.1 µM; IC50 [2, 6]: 0.1 to 1 µM |
| O=C1CC2(CSC2)CC2=C1C1(CCCC1)c1c[nH]nc1N2 [Compound 913441] | 0.1 to 1 | 0.1 to 1 | – | – | – |
| CC1(C)CC(=O)C2=C(C1)Nc1n[nH]cc1[C@@]21CO[C@@H](C2CC2)C1 [Compound 913442] | 0.1 to 1 | 0.1 to 1 | – | – | – |
| CC[C@@]1(c2cccc(C(F)(F)F)c2)C2=C(Nc3n[nH]cc31)C(C)(C)NC2=O [Compound 913451] | ≤ 0.1 | 0.1 to 1 | – | – | – |
| CC[C@@]1(c2cccc(C(F)(F)F)c2)C2=C(CC3(CCC3)NC2=O)Nc2n[nH]cc21 [Compound 914308] | – | – | – | – | IC50 [1, 5]: ≤ 0.1 µM; IC50 [1, 7]: 0.1 to 1 µM; IC50 [2, 6]: ≤ 0.1 µM; IC50 [2, 8]: 1 to 5 µM |
| CCC1(c2cccc(-c3ccnc(C)c3)c2)C2=C(CC(C)(C)NC2=O)Nc2n[nH]cc21 (stereo not drawn) [Compound 914930] | – | – | – | – | IC50 [1, 5]: ≤ 0.1 µM; IC50 [2, 6]: 1 to 5 µM |
| CCC1(c2cccc(-c3ccnn3C)c2)C2=C(CC(C)(C)NC2=O)Nc2n[nH]cc21 (stereo not drawn) [Compound 914971] | – | – | – | – | IC50 [1, 5]: ≤ 0.1 µM; IC50 [2, 6]: 0.1 to 1 µM |
| CC[C@@]1(c2cccc(N(C)c3cnccn3)c2)C2=C(CC(C)(C)CC2=O)Nc2n[nH]cc21 [Compound 915316] | – | – | ≤ 0.1 | ≤ 0.1 | – |
| CC[C@]1(c2cccc(N(C)c3cnccn3)c2)C2=C(CC(C)(C)CC2=O)Nc2n[nH]cc21 [Compound 915340] | – | – | 0.1 to 1 | 1 to 5 | – |
| CC[C@@]1(c2cccc(N(C)c3cncnc3)c2)C2=C(CC(C)(C)CC2=O)Nc2n[nH]cc21 [Compound 915400] | – | – | ≤ 0.1 | ≤ 0.1 | – |
| CC[C@]1(c2cccc(N(C)c3cncnc3)c2)C2=C(CC(C)(C)NC2=O)Nc2n[nH]cc21 [Compound 915401] | – | – | 0.1 to 1 | 1 to 5 | – |
| CCC1(c2cccc(N3CCCc4ncccc43)c2)C2=C(CC(C)(C)CC2=O)Nc2n[nH]cc21 (stereo not drawn) [Compound 917076] | – | – | ≤ 0.1 | ≤ 0.1 | – |
| CCC1(c2cccc(N3CCCc4ncccc43)c2)C2=C(CC(C)(C)CC2=O)Nc2n[nH]cc21 (stereo not drawn) [Compound 917079] | – | – | 0.1 to 1 | 1 to 5 | – |
| CC1(C)CC(=O)C2=C(C1)Nc1n[nH]cc1C21CC(c2ccccc2)C1 (stereo not drawn) [Compound 917081] | ≤ 0.1 | ≤ 0.1 | – | – | – |
| CC1(C)CC(=O)C2=C(C1)Nc1n[nH]cc1C21CC(c2ccccc2)C1 (stereo not drawn) [Compound 917082] | ≤ 0.1 | ≤ 0.1 | – | – | – |
| CCC1(c2cccc(N(c3cccnc3)C(C)C)c2)C2=C(CC(C)(C)CC2=O)Nc2n[nH]cc21 (stereo not drawn) [Compound 917086] | – | – | – | – | IC50 [1, 7]: 0.1 to 1 µM; IC50 [2, 8]: 1 to 5 µM |
| CC[C@]1(c2cccc(N(c3cccnc3)C(C)C)c2)C2=C(CC(C)(C)CC2=O)Nc2n[nH]cc21 [Compound 917087] | – | – | 0.1 to 1 | 1 to 5 | – |
| CCN(c1cccnc1)c1cccc(C2(CC)C3=C(CC(C)(C)CC3=O)Nc3n[nH]cc32)c1 (stereo not drawn) [Compound 917088] | – | – | ≤ 0.1 | ≤ 0.1 | IC50 [1, 7]: 0.1 to 1 µM; IC50 [2, 8]: 1 to 5 µM |
| CCN(c1cccnc1)c1cccc(C2(CC)C3=C(CC(C)(C)CC3=O)Nc3n[nH]cc32)c1 (stereo not drawn) [Compound 917089] | – | – | 0.1 to 1 | 1 to 5 | – |

| SMILES | IC50 [1, 3] [µM] | IC50 [2, 4] [µM] | IC50 [1, 9] [µM] | IC50 [2, 10] [µM] | further results |
| --- | --- | --- | --- | --- | --- |
| CC1(C)CC(=O)C2=C(C1)Nc1n[nH]cc1[C@]21COC2(CCC2)C1 [Compound 917128] | – | – | – | – | IC50 [1, 5]: 0.1 to 1 µM; IC50 [2, 6]: 0.1 to 1 µM |
| CC1(C)CC(=O)C2=C(C1)Nc1n[nH]cc1[C@@]21COC2(CCC2)C1 [Compound 917129] | – | – | – | – | IC50 [1, 5]: 0.1 to 1 µM; IC50 [2, 6]: 0.1 to 1 µM |
| CCCS(=O)(=O)c1cccc(C2(CC)C3=C(CC(C)(C)CC3=O)Nc3n[nH]cc32)c1 (stereo not drawn) [Compound 917131] | – | – | ≤ 0.1 | ≤ 0.1 | – |
| CC1(C)CC2=C(C(=O)C1F)[C@]1(CC[C@H](C(F)(F)F)CC1)c1c[nH]nc1N2 (stereo partly drawn) [Compound 917133] | ≤ 0.1 | ≤ 0.1 | – | – | – |
| CC1(C)CC2=C(C(=O)C1F)[C@]1(CC[C@@H](C(F)(F)F)CC1)c1c[nH]nc1N2 (stereo partly drawn) [Compound 917134] | ≤ 0.1 | 0.1 to 1 | – | – | – |
| CC1(C)CC(=O)C2=C(Nc3n[nH]cc3[C@]23CC[C@@H](C(F)(F)F)CC3)C1F (stereo partly drawn) [Compound 917135] | ≤ 0.1 | 0.1 to 1 | – | – | – |
| CC1(C)CC(=O)C2=C(Nc3n[nH]cc3[C@]23CC[C@H](C(F)(F)F)CC3)C1F (stereo partly drawn) [Compound 917136] | ≤ 0.1 | 0.1 to 1 | – | – | – |
| CC1(C)CC(=O)C2=C(C1)Nc1n[nH]cc1C21CCCN(S(=O)(=O)C2CC2)CC1 (stereo not drawn) [Compound 917137] | ≤ 0.1 | ≤ 0.1 | – | – | – |
| Cn1ccc(S(=O)(=O)N2CCCC3(CC2)C2=C(CC(C)(C)CC2=O)Nc2n[nH]cc23)n1 (stereo not drawn) [Compound 917138] | ≤ 0.1 | ≤ 0.1 | – | – | – |
| CC1(C)CC(=O)C2=C(C1)Nc1n[nH]cc1C21CN(S(=O)(=O)C2CCCC2)C1 [Compound 917139] | ≤ 0.1 | ≤ 0.1 | – | – | IC50 ([1]; GSK3-A (TR-FRET 1 mM ATP), GMean, IC50, 1 mM ATP, geometric mean): 0.1 to 1 µM; IC50 ([2]; GSK3-B (TR-FRET 1 mM ATP), GMean, IC50, 1 mM ATP, geometric mean): 0.1 to 1 µM |
| COc1cccc(S(=O)(=O)N2CCCC3(CC2)C2=C(CC(C)(C)CC2=O)Nc2n[nH]cc23)c1 (stereo not drawn) [Compound 917140] | ≤ 0.1 | 0.1 to 1 | – | – | – |
| COc1ccc(S(=O)(=O)N2CCCC3(CC2)C2=C(CC(C)(C)CC2=O)Nc2n[nH]cc23)cc1 (stereo not drawn) [Compound 917141] | ≤ 0.1 | 0.1 to 1 | – | – | – |
| COc1ccccc1S(=O)(=O)N1CCCC2(CC1)C1=C(CC(C)(C)CC1=O)Nc1n[nH]cc12 (stereo not drawn) [Compound 917142] | ≤ 0.1 | 0.1 to 1 | – | – | – |
| COc1ccc(S(=O)(=O)N2CCC3(CC2)C2=C(CC(C)(C)CC2=O)Nc2n[nH]cc23)cc1 [Compound 917143] | ≤ 0.1 | ≤ 0.1 | – | – | – |
| CC1(C)CC(=O)C2=C(C1)Nc1n[nH]cc1C21CN(S(=O)(=O)c2ccc(F)cc2)C1 [Compound 917144] | ≤ 0.1 | ≤ 0.1 | – | – | – |
| CC1(C)CC(=O)C2=C(C1)Nc1n[nH]cc1C21CCCN(c2ccncn2)CC1 (stereo not drawn) [Compound 917145] | – | – | 1 to 5 | 1 to 5 | – |
| CCC1(c2cccc(N(C)c3ccnc(F)c3)c2)C2=C(CC(C)(C)CC2=O)Nc2n[nH]cc21 (stereo not drawn) [Compound 917146] | – | – | ≤ 0.1 | ≤ 0.1 | – |
| CCc1cc(N(C)c2cccc(C3(CC)C4=C(CC(C)(C)CC4=O)Nc4n[nH]cc43)c2)ccn1 (stereo not drawn) [Compound 917147] | – | – | ≤ 0.1 | 0.1 to 1 | – |
| CCC1(c2cccc(N(C)c3ccnc(C)c3)c2)C2=C(CC(C)(C)CC2=O)Nc2n[nH]cc21 (stereo not drawn) [Compound 917149] | – | – | 0.1 to 1 | 1 to 5 | – |
| CCC1(c2cccc(S(=O)(=O)CC3CC3)c2)C2=C(CC(C)(C)CC2=O)Nc2n[nH]cc21 (stereo not drawn) [Compound 917150] | – | – | ≤ 0.1 | ≤ 0.1 | IC50 [1, 7]: ≤ 0.1 µM; IC50 [2, 8]: 0.1 to 1 µM |
| CC[C@@]1(c2cccc(S(=O)(=O)CC3CC3)c2)C2=C(CC(C)(C)CC2=O)Nc2n[nH]cc21 [Compound 917151] | – | – | 1 to 5 | > 5 | – |
| CCC1(c2cccc(N(C)c3ccc(F)nc3)c2)C2=C(CC(C)(C)CC2=O)Nc2n[nH]cc21 (stereo not drawn) [Compound 917152] | – | – | ≤ 0.1 | 0.1 to 1 | – |
